# Experimental data from publication PMC11320734 (ACS Pharmacology & Translational Science, 2024).
# Where two headings read alike, the source gives them in different places.
# Assays:
# COX-2 = COX-2 (Homo sapiens, UniProt P35354); test: Endocannabinoid target profiling: COX-2; assay type: biochemical
# hCB1R = hCB1R (Homo sapiens, UniProt P21554); test: cell-based; settings: Table 1; mean ± SD; read-out: EC50 hCB1R (cAMP assay)
# hERG channel = hERG channel (Homo sapiens, UniProt Q12809); test: hERG inhibition; assay type: cell-based
# human wild type CB2R = human wild type CB2R (Homo sapiens, UniProt P34972); test: cAMP assay in CHO cells; assay type: cell-based; parameters: expressed in transfected cells; host or cells: CHO cells
# human Q63R variant CB2R = target: T1, human Q63R variant CB2R (Homo sapiens, UniProt P34972, Q63R); test: cAMP assay in CHO cells; assay type: cell-based; settings: mean ± SD
# T1 construct: expressed in transfected cells; host or cells: CHO cells
# [1] = Lyophilization solubility assay (LYSA); assay type: physicochemical; settings: aqueous buffer, thermodynamic from solid; kinetic, phosphate buffer pH 6.5
# Protocol: For the determination of the octanol/water distribution coefficient (logD), the carrier-mediated distribution system (CAMDIS)-assay was used as described elsewhere.[38] Kinetic and thermodynamic solubilities were assessed using the lyophilization solubility assay (LYSA) and thermodynamic solubility assay (THESA), respectively. For the LYSA, the solubility of RNB- 61 in phosphate buffer at pH 6.5 from an evaporated 10 mM DMSO compound stock solution was measured. Two aliquots of the test compounds were dried and dissolved in phosphate buffer at pH 6.5. The solutions were then filtered and diluted (3 different dilution levels for each compound) before high throughput mass spectrometry (MS) analysis was performed in an Agilent RapidFire system. Each test compound was quantified using a 6-point calibration curve prepared with the same DMSO starting solution. For THESA, RNB-61 (8.6 mg per mL solvent/vehicle) was stirred in HPLC vials (9 × 12 × 32 mm, Waters) at 350 rpm for 15 h. The presence of solid particles was determined by microscopic analysis of 10 μL samples. If the active pharmacological ingredient (API) was completely dissolved, more solid API was added before stirring for another 15 h. This step was repeated for up to 96 h or until residual solid particles could be detected. […] The filtrates were diluted in ethanol and analyzed by ultra-performance liquid chromatography (UPLC). […]
# ABHD12 = ABHD12 (Homo sapiens, UniProt Q8N2K0); test: Endocannabinoid target profiling: ABHD12; assay type: biochemical
# [2] = Aqueous stability assay (ASTA); assay type: physicochemical
# Protocol: The stability of the compound was assessed using the aqueous stability assay (ASTA), as previously described.[37] In short, aqueous solutions of RNB-61 were prepared at 5 different pH values (range 1–10), added to incubation plates and shaken for 10 min at 37 °C. Solutions were transferred to a filter plate (Millipore MSGVN2250, pore size 0.22 μm) and filtered into V- bottom plates (ABGene, AB-0800) prior to heat-sealing. The procedure was repeated, increasing the 37 °C incubation time by 2 h. Samples were analyzed by HPLC at 0 and 2 h. A compound was classified as unstable if <90% of the initial concentration was detected after 2 h.
# [3] = Thermodynamic solubility assay (THESA), also in FaSSIF and FeSSIF; assay type: physicochemical; settings: thermodynamic from solid
# Protocol: For the determination of the octanol/water distribution coefficient (logD), the carrier-mediated distribution system (CAMDIS)-assay was used as described elsewhere.[38] Kinetic and thermodynamic solubilities were assessed using the lyophilization solubility assay (LYSA) and thermodynamic solubility assay (THESA), respectively. For the LYSA, the solubility of RNB- 61 in phosphate buffer at pH 6.5 from an evaporated 10 mM DMSO compound stock solution was measured. Two aliquots of the test compounds were dried and dissolved in phosphate buffer at pH 6.5. The solutions were then filtered and diluted (3 different dilution levels for each compound) before high throughput mass spectrometry (MS) analysis was performed in an Agilent RapidFire system. Each test compound was quantified using a 6-point calibration curve prepared with the same DMSO starting solution. For THESA, RNB-61 (8.6 mg per mL solvent/vehicle) was stirred in HPLC vials (9 × 12 × 32 mm, Waters) at 350 rpm for 15 h. The presence of solid particles was determined by microscopic analysis of 10 μL samples. If the active pharmacological ingredient (API) was completely dissolved, more solid API was added before stirring for another 15 h. This step was repeated for up to 96 h or until residual solid particles could be detected. Samples (0.5 mL) were transferred to Eppendorf Ultrafree filter tubes (Filter: PVDF 0.22 μm) and centrifuged at 14,500 rpm for 10 min. The filtrates were diluted in ethanol and analyzed by ultra-performance liquid chromatography (UPLC). Measurements were repeated in 0.05 M aqueous phosphate buffer and in fasted (FaSSIF) and fed (FeSSIF) simulated gastrointestinal fluids.
# human wild type CB2R, sequence (P34972 whole entry): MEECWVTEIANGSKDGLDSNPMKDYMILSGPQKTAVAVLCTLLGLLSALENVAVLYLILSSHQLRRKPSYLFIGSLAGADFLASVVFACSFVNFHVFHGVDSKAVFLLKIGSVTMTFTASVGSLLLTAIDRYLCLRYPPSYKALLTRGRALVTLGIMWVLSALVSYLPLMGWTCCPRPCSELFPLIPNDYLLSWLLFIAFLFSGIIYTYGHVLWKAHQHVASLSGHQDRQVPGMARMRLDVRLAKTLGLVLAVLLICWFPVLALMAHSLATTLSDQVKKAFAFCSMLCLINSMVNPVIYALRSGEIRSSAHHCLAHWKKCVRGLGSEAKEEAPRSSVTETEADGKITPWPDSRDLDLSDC
# ABHD12, sequence (Q8N2K0 whole entry, species assumed): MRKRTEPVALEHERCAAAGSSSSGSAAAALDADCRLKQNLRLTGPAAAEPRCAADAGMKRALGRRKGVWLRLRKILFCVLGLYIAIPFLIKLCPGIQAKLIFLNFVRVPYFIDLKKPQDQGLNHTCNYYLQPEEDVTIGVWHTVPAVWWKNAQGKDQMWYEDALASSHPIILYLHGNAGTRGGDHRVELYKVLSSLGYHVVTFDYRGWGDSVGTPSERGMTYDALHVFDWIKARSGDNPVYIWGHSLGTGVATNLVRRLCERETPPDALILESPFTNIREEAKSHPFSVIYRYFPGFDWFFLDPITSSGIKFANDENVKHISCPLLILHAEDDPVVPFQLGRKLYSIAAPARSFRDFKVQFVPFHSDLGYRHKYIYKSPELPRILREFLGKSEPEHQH
# COX-2, sequence (P35354 18-604): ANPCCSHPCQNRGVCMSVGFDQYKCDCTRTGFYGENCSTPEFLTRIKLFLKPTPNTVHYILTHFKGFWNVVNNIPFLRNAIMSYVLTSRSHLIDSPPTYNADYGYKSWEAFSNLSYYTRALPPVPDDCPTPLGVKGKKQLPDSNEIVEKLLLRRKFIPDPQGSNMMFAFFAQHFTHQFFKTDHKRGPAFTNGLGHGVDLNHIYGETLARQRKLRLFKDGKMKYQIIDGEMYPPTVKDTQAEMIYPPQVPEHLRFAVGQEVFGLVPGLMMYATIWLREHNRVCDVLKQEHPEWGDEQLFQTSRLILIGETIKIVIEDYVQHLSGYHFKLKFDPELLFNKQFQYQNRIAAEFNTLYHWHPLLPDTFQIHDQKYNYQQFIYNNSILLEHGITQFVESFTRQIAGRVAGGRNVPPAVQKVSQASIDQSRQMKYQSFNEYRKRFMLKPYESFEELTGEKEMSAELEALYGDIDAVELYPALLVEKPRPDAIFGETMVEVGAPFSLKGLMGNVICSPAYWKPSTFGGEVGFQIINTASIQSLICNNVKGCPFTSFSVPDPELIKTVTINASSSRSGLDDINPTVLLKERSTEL
# T1 sequence (P34972 whole entry Q63R): as the sequence (P34972 whole entry) above, with Q63R counted along it
# hERG channel, sequence (Q12809 whole entry): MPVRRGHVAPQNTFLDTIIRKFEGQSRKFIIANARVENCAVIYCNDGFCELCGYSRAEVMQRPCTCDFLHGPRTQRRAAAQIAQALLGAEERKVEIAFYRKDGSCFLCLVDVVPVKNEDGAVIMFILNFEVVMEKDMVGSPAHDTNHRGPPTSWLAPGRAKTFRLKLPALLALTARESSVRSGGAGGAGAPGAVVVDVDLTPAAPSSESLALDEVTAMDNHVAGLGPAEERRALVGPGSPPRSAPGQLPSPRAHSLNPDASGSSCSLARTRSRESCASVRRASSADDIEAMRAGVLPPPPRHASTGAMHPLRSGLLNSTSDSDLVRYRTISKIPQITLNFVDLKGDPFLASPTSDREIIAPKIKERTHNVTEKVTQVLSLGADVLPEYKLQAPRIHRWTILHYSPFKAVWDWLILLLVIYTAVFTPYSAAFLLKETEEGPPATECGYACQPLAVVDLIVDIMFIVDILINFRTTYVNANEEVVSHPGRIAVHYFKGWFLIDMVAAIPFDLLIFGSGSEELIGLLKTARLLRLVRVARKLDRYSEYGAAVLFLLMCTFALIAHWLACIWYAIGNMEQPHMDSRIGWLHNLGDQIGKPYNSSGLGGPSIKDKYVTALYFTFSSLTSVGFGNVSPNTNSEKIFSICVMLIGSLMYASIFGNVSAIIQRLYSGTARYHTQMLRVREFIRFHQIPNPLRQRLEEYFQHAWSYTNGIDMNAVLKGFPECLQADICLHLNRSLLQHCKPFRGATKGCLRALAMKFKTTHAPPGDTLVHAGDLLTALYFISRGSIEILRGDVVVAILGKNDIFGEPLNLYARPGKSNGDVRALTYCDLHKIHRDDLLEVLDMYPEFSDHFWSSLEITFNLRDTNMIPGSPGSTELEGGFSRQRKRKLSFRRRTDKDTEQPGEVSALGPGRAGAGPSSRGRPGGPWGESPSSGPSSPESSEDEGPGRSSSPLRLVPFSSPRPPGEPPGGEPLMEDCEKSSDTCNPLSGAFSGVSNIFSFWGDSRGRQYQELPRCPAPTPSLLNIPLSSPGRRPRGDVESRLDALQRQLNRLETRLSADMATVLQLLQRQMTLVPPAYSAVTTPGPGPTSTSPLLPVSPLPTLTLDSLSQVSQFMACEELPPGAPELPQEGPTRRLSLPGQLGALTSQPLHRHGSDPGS
# hCB1R, sequence (P21554 whole entry): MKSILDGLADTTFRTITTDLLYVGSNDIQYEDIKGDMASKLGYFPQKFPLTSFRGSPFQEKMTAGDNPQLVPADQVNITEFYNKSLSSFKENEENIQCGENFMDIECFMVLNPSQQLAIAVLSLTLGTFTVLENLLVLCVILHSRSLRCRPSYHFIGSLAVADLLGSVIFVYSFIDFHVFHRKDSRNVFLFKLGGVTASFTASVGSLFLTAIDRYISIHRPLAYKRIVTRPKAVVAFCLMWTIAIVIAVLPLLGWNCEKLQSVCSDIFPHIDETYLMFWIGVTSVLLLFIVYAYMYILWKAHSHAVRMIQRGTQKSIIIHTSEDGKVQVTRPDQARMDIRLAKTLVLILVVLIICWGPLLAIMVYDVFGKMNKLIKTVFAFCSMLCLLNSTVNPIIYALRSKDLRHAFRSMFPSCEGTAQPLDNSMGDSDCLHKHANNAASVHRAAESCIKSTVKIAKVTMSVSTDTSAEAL
smiles,measurement,setting,value
Cn1c(C(C)(C)C)cc(=NC(=O)c2cc(C(F)(F)F)ccc2OCC(C)(C)O)n1CC1CCC1 [RNB-61],IC50,"COX-2; Table S1, read-out: COX-2 (Ki, IC50)",> 10000 nM
same,inhibition of EC oxygenation (COX-2),COX-2; screening concentration 10 μM,did not inhibit
same,EC50,hCB1R,> 10000 nM
same,hERG inhibition,hERG channel,>10 µM
same,Emax,"human wild type CB2R; CHO, percentage normalized to 1 μM CP55940, read-out: Emax cAMP inhibition",100%
same,EC50,"human wild type CB2R; Table 1, mean ± SD, read-out: EC50 hCB2R (cAMP assay)",0.31 ± 0.07 nM
same,Emax cAMP inhibition,"human wild type CB2R; percentage normalized to 1 μM CP55940, listed as RBN-61","same efficacy (Emax) as CP55,940"
same,EC50,human Q63R variant CB2R,0.29 ± 0.07 nM
same,solubility,[1],194 µg/mL
same,IC50,"ABHD12; Table S1, read-out: ABHD12 (Ki, IC50)",> 10000 nM
same,inhibition of EC hydrolysis by ABHD12,ABHD12; screening concentration 10 μM,did not inhibit
same,stability in aqueous solution at pH 1,"[2]; 2 h, 37 °C",104.4 % of initial [200 nM]
same,stability in aqueous solution at pH 4,"[2]; 2 h, 37 °C",102.7 % of initial [200 nM]
same,stability in aqueous solution at pH 6.5,"[2]; 2 h, 37 °C",102.7 % of initial [200 nM]
same,stability in aqueous solution at pH 8,"[2]; 2 h, 37 °C",100.5 % of initial [200 nM]
same,stability in aqueous solution at pH 10,"[2]; 2 h, 37 °C",101.6 % of initial [200 nM]
same,stability in aqueous solution,"[2]; 2 h at 37 °C at pH 1, 4, 6.5, 8 and 10",stable
same,solubility at 15 h,"[3]; aqueous buffer, read-out: aqueous solubility THESA",316 µg/mL
same,solubility at 15 h,"[3]; fassif, fasted simulated gastrointestinal fluid, read-out: solubility FaSSIF",630 µg/mL
same,solubility at 15 h,"[3]; fessif, fed simulated gastrointestinal fluid, read-out: solubility FeSSIF",1370 µg/mL
